In patent US9975881B2, “Compound” (ASTRAZENECA AB, priority 2011, dated 2018):

Experiment: Dog half-life (measured), in vivo pharmacokinetics
Details: male, 1 mg/kg; elimination half-life in plasma, intravenous 30 minute infusion, beagle dog, mean of a minimum of two dogs
Description: The following describes the methods used to obtain in vivo pharmacokinetic parameters in the male beagle dog. It is applicable for use with any compound but may need modification based on such parameters as solubility, assay sensitivity, anticipated clearance and half-life, when the default formulation, dose level or sampling intervals may be inappropriate. The method described here represents a standard approach from which justified and documented modifications can be made.
A standard dose solution of 1 mg·mL^−1 was prepared. The recommended dose vehicle (if the compound was not sufficiently soluble in isotonic saline) was 10%/o DMSO:90% sterile water or saline with pH adjustment using 1 M HCl or NaOH. […]
Blood samples (˜1 ml) were taken into EDTA treated sampling tubes and plasma was prepared by centrifugation (3 minutes at 13000 rpm) soon after sample collection. Samples were taken at pre determined times over 24 hours (e.g. 0, 5, 15, 30, 35, 45, 60, 90, 120, 180, 240, 300, 360, 420, 720, 1440 minutes). The concentration of the analyte(s) was quantitatively determined in plasma by mass spectrometry. […]
To each of the test samples, dose tests, standards and QCs 100 μL (90 μl for dose tests, standards and QCs) of methanol was added followed by 100 μl of internal standard. […] Aliquots (120 μL) of each sample were transferred into a microtitre plate ready for analysis via HPLC/MS-MS. […]

half-life: 3.7 h
SMILES: CC1CN(S(=O)(=O)Nc2cc(O[C@H](C)[C@@H](O)CO)nc(SCc3ccc(F)cc3)n2)C1 [Example 1, N-(6-((2R,3S)-3,4-Dihydroxybutan-2-yloxy)-2-(4-fluorobenzylthio)pyrimidin-4-yl)-3-methylazetidine-1-sulfonamide]
